According to paper PMC10290335 (Malaria Journal, 2023):
In brackets after ≈: the same amount, converted by molar mass. Several values for one entry are separate records, joined by “and”; a condition that tells them apart may be missing. Equal values may be shown once. Entries after “also recorded” stand apart in the source; their conditions may differ. Read-outs that look alike come from different tables or passages of the source.

What was measured:
rh CYP3A4 supersomes = target: T1, rh CYP3A4 supersomes (Homo sapiens, UniProt P08684); test: Ivermectin metabolism by recombinant human CYP3A4 supersomes; type: in vitro ADME; conditions: 10 µM ivermectin
T1 construct: purchased Corning Life Sciences B.V. (Amsterdam, The Netherlands)
Protocol: (§1) The assay mixture was heated for 10 min at 37 °C in a Thermomixer 5436 (Eppendorf, Hamburg, Germany) and the reaction was initiated by the addition of supersomes. Samples (50 μL) were taken after 0, 15, 30, 45, and 60 min. […] After centrifugation (30 min at 3220×g and 15 °C, 5810 R Eppendorf centrifuge), sample supernatants (10 µL) were analysed by LC–MS/MS. Metabolite production was quantified by dividing the metabolite peak area with the ISTD peak area. Each metabolism assay was performed in triplicate.

rh CYP3A5 supersomes = target: T2, rh CYP3A5 supersomes (Homo sapiens, UniProt P20815); test: Ivermectin metabolism by recombinant human CYP3A5 supersomes; type: in vitro ADME; conditions: 10 µM ivermectin
T2 construct: purchased Corning Life Sciences B.V. (Amsterdam, The Netherlands)
Protocol: as §1

[1] = Clinical pharmacokinetics of ivermectin metabolites in blood of healthy volunteers; type: in vivo, human; conditions: for Cmax [ratio]: area/internal standard area ratio; for Cmax [ratio] / Half-life / MRTlast / Tmax: whole blood, 12 subjects, mean ± SE; for Cmax [ratio] / Half-life / MRTlast: 12 mg ivermectin, NCA; for Tmax: single oral 12 mg ivermectin
Protocol: Peripheral venous blood samples were collected before dosing and after 1, 2, 4, 6, 8, 12, 24, 48 and 72 h. Blood samples (50 µL) were extracted by the addition of 150 µL ISTD solution. Samples were mixed for 1 min and centrifuged for 30 min at 3220×g and 15 °C (5810 R centrifuge). Twenty microlitres of supernatant were injected into the LC–MS/MS system to determine the signal intensity of the metabolites.
The different LC–MS/MS settings were applied for the metabolism, pharmacokinetic and metabolite fractioning assays (Additional file 1: Table S1, S2, S3). All analyses were performed on a modular HPLC (Shimadzu, Kyoto, Japan) composed of four pumps (2 × LC-30AD, 2 × LC-20AD), an autosampler (SIL 30-AC MP), a system controller (CBM-20A), two degassing units (DGU-20A5 and DGU-20A3R), a column oven (CTO-20AC), a low-pressure valve (FCV-12AH), and a fraction collector (FRC-12A). The HPLC system was connected to an API 5000 triple quadrupole mass spectrometer (AB Sciex, Ontario, Canada) that was equipped with a turbo electrospray ionization source. The system was operated with Analyst Software 1.7 (AB Sciex) and acquired data were analysed using MultiQuant Software 3.0.3 (AB Sciex).
The integral method “linear up log down” was used on area/internal standard area ratio.
In total, three T0 blank blood samples originating from different PK study participants were used to resuspend the metabolites (Additional file 1: Table S5). The signal intensity was recorded for every metabolite by extracting the 50 µL blood with 150 µL of ISTD solution. The metabolite peak area was determined by LC–MS/MS (see section LC-MS/MS analysis of ivermectin). Moreover, the PK samples of all study participants were equally extracted and analysed to derive the maximal blood level (Cmax) from the blood level-time curves. Afterwards, the mean metabolite peak area of the spiked blank blood was compared with the mean peak area of the Cmax samples (Additional file 1: Table S5). The amount of each metabolite fraction was either reduced or increased to match the peak area of Cmax samples. If the metabolite was not detectable in PK samples, the amount of metabolite was adjusted to the lower limit of detection of the method. In this case, blank blood was spiked with the metabolite fraction to receive a signal intensity that is three times larger than the corresponding noise level.

[2] = test system: Anopheles stephensi mosquitoes; test: Anopheles stephensi membrane feeding screening assay (survival and activity); type: in vivo; conditions: for Average activity score: score +2 flying, +1 moving, 0 dead; for mean survival of mosquitoes after blood meal: blood meal at Cmax level; for mosquitoes dead after 72 h: blood meal at Cmax level (ivermectin 50 ng/mL), 72 h after treatment; for activity against An. stephensi: at Cmax levels observed in clinical PK samples
Protocol: The final DMSO content in blood was 0.1%, which was also the DMSO concentration used for the negative control assays (0.1% DMSO in blank blood). Inclusion of blank fractions as additional negative controls were not considered, because it would not have been feasible to also test the corresponding blank fraction for each metabolite fraction (F1–F9). The blood preparations were rotated at room temperature for 20 min to ensure a uniform metabolite distribution (Rotator Genie, Scientific Industries, Bohemia, USA). The dissolution of the metabolites was confirmed by LC–MS/MS.
Around 50–70 female mosquitoes aged 5–10 days post-emergence were transferred with a mouth aspirator into 20 mL paper cups. A piece of mosquito netting was used to cover the cups. Mosquitoes were starved for 24 h before treatment. The mosquito blood meals were heated in a water bath (SAHARA PPO S5P Heated Bath Circulators, Thermo Fisher Scientific, New Hampshire, USA) for 20 min at 39 °C. A Petri dish (35 mm × 10 mm, BD, Franklin Lakes, USA) was filled with 3 mL of warm blood, sealed with a piece of sealing film (Parafilm®, Huberlab AG, Aesch, Switzerland). The Petri dish was placed upside down on top of the net sealing the paper cup. Female mosquitoes were allowed to feed for 20 min on the blood through the net and the sealing film. The feeding was conducted in a climate chamber (HPP110, Memmert GmbH + Co.KG, Schwabach, Germany) at 27 °C, 70% humidity, and 30% light intensity. After feeding, the cups were put on ice to immobilise the mosquitoes and only the fully engorged mosquitoes were selected for the assay. The mosquitoes were returned to the climate chamber to assess their activity and survival for 3 days.
In the framework of screening assays, mosquitoes were treated with blood containing each metabolite corresponding to Cmax levels observed in PK samples. […] In screening assays, eleven treatments were evaluated with three replicates using three batches of 50–70 mosquitoes.

[3] = test system: Anopheles stephensi mosquitoes; test: 3-day LC50 in Anopheles stephensi (membrane feeding, dilutions); type: in vivo; conditions: 72 h after blood feeding
Protocol: A pilot test was performed to evaluate optimal dilutions matching the expected LC50 values (data not shown).
Student's t test was adopted to test the significance of all mean survival differences between groups, using the R package ggsignif (version 0.6.4). Survival analyses, summary and visualisation of survival analysis were computed using the GNU R packages survival (version 3.1-8) and survminer (version 0.4.9). Replicates were pooled and analysed by the logrank test and the hazard ratio with 95% confidence intervals. LC50 in An. stephensi mosquito were approximated with regression analysis, using GNU R package drc (version 3.0-1) for analysis of dose–response curves (Additional file 1: Fig. S3). The time above LC50 estimation (Additional file 1: Fig. S4) was computed using the GNU R package data.table (version 1.14.6).

[4] = plasma, single oral 12 mg ivermectin, mean ± SD; cited from earlier work
[5] = cited from earlier work
Aedes aegypti = conditions: cited from earlier work
An. stephensi = conditions: cited from earlier work
An. gambiae = conditions: cited from earlier work
[6] = mean of PK subjects 1-12, 50 µL blood
[7] = Cmax = maximal peak area in human PK samples

T2 sequence (P20815 whole entry): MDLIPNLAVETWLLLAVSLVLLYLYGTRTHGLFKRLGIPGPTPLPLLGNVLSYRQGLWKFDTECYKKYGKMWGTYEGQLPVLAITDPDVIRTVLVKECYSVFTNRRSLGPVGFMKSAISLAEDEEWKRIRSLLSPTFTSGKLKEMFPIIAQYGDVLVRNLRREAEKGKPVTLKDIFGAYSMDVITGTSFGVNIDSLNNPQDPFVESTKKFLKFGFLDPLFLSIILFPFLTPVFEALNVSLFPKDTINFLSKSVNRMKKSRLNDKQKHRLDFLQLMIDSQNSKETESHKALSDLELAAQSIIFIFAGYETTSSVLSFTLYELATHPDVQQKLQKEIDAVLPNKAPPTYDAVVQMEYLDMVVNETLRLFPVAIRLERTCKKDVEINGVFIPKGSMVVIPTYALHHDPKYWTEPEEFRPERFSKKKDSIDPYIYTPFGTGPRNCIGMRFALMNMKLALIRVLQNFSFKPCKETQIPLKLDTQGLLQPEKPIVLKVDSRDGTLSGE
T1 sequence (P08684 whole entry): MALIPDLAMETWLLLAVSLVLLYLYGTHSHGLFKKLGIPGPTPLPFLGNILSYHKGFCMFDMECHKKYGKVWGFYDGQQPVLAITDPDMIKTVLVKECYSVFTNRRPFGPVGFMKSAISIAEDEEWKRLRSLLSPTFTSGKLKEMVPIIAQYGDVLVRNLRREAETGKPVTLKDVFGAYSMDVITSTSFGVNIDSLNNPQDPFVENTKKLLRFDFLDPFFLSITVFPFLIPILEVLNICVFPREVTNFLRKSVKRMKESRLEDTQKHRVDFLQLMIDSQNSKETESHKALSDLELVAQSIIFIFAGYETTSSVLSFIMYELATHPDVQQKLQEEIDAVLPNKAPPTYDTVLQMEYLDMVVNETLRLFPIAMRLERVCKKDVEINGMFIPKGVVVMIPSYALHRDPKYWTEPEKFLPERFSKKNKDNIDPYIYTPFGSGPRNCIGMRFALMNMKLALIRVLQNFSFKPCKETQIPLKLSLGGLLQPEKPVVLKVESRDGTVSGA

Compound | Average activity score ([2]; 0 h post feeding) | Average activity score ([2]; 24 h post feeding) | Average activity score ([2]; 48 h post feeding) | Average activity score ([2]; 72 h post feeding) | mean survival of mosquitoes after blood meal [2] | mosquitoes dead after 72 h [2] | Observed Cmax, peak area ([1]; PK subject 1, 50 µL blood) | Observed Cmax, peak area ([1]; PK subject 2, 50 µL blood) | Observed Cmax, peak area ([1]; PK subject 3, 50 µL blood) | Observed Cmax, peak area ([1]; PK subject 4, 50 µL blood) | Observed Cmax, peak area ([1]; PK subject 5, 50 µL blood) | Observed Cmax, peak area ([1]; PK subject 6, 50 µL blood) | Observed Cmax, peak area ([1]; PK subject 7, 50 µL blood) | Observed Cmax, peak area ([1]; PK subject 8, 50 µL blood) | Observed Cmax, peak area ([1]; PK subject 9, 50 µL blood) | Observed Cmax, peak area ([1]; PK subject 10, 50 µL blood) | Observed Cmax, peak area ([1]; PK subject 11, 50 µL blood) | Observed Cmax, peak area ([1]; PK subject 12, 50 µL blood) | Cmax [ratio] [1] | Observed Cmax, peak area [1, 6] | further results
CC[C@H](C)[C@H]1O[C@]2(CC[C@@H]1CO)C[C@@H]1C[C@@H](C/C=C(\C)[C@@H](O[C@H]3C[C@H](OC)[C@@H](O[C@H]4C[C@H](OC)[C@@H](O)[C@H](C)O4)[C@H](C)O3)[C@@H](C)/C=C/C=C3\CO[C@@H]4[C@H](O)C(C)=C[C@@H](C(=O)O1)[C@]34O)O2 [M9, 24-hydroxy-H2B1a] | 2.00 | 1.92 | 1.87 | 1.64 |  |  |  |  |  |  |  |  |  |  |  |  |  |  |  |  | metabolite formation by CYP3A4 (rh CYP3A4 supersomes): only minor amounts; metabolite formation by CYP3A5 (rh CYP3A5 supersomes): mainly produced by CYP3A5; also recorded: very effective; detection in pharmacokinetic samples ([1]; human blood after single oral 12 mg ivermectin): Only traces
CCC(C)C1OC2(CCC1C)CC1CC(CC=C(C)C(OC3CC(OC)C(OC4CC(OC)C(O)C(C)O4)C(C)O3)C(C)C=CC=C3COC4C(O)C(C)=CC(C(=O)O1)C34O)O2 (stereo not shown) [Ivermectin, 22,23-dihydroavermectin B1a, reference compound] | 2.00 | 0.71 ± 0.05 | 0.03 ± 0.02 | 0 | decreased | 100% |  |  |  |  |  |  |  |  |  |  |  |  |  |  | ivermectin metabolised (rh CYP3A4 supersomes; within 1 h): 80%; ivermectin metabolised (rh CYP3A5 supersomes; within 1 h): 20%; Average activity score ([2]; 24 h post feeding, listed as IVM): 0.71; Average activity score ([2]; 48 h post feeding, listed as IVM): 0.03; 3-day LC50 [3]: 3.07 ng/mL; LC50 ([3]; Anopheles stephensi, 72 h): ~3 ng/mL (≈ 3.43 nM); Cmax [4]: 70.7 ± 16.1 ng/mL; Half-life [4]: 38.9 ± 20.8 h; Tmax [4]: 4.4 ± 1.4 h; estimated half-life [5]: 24 to 72 h; peak concentration ([5]; single oral dose of 150 µg/kg): around 40 ng/mL; time of peak concentration ([5]; single oral dose of 150 µg/kg): Approximately 4 h; LC50 within 7-days (Aedes aegypti): 178 to 187 ng/mL; 4-day-LC50 (An. stephensi): 7 ng/mL; 7-day-LC50 (An. gambiae; blood fed from treated humans): 3.4 ng/mL; 7-day-LC50 (An. gambiae; spiked ivermectin experiments (in vitro mixture)): 15.9 ng/mL
CCC(C)C1OC2(CCC1C)CC1CC(CC=C(C)C(OC3CC(OC)C(OC4CC(O)C(O)C(C)O4)C(C)O3)C(C)C=CC=C3COC4C(O)C(C)=CC(C(=O)O1)C34O)O2 (stereo not shown) [M1, 3″-O-desmethyl-H2B1a] | 2.00 | 1.07 and 1.07 ± 0.04 | 0.23 and 0.23 ± 0.02 | 0.01 | decreased | 98.8% | 1.95E+04 counts | 1.01E+04 counts | 1.39E+04 counts | 8.48E+03 counts | 9.52E+03 counts | 2.33E+04 counts | 1.56E+04 counts | 1.79E+04 counts | 1.28E+04 counts | 1.60E+04 counts | 2.28E+04 counts | 1.78E+04 counts | 0.011 ± 0.001 ratio | 1.56E+04 counts | Half-life [1]: 54.2 ± 4.7 h; MRTlast [1]: 33.8 ± 0.9 h; Tmax [1]: 7.0 ± 0.5 h; activity against An. stephensi [2]: active; 3-day LC50 [3, 7]: 0.25 Cmax
CCC(C)C1OC2(CCC1C)CC1CC(CC=C(C)C(OC3CC(OC)C(OC4CC(OC)C(O)C(C)O4)C(C)O3)C(C)C=CC=C3COC4C(O)C(CO)=CC(C(=O)O1)C34O)O2 (stereo not shown) [M2, 4-hydroxy-H2B1a] | 2.00 | 1.20 and 1.20 ± 0.12 | 0.28 and 0.28 ± 0.05 | 0 | decreased | 100% | 1.84E+04 counts | 9.36E+03 counts | 1.31E+04 counts | 7.42E+03 counts | 9.63E+03 counts | 2.00E+04 counts | 1.39E+04 counts | 1.25E+04 counts | 1.08E+04 counts | 1.50E+04 counts | 1.64E+04 counts | 1.59E+04 counts | 0.010 ± 0.0010 ratio | 1.35E+04 counts | Half-life [1]: 31.9 ± 3.4 h; MRTlast [1]: 25.8 ± 0.7 h; Tmax [1]: 6.3 ± 0.3 h; activity against An. stephensi [2]: active; 3-day LC50 [3, 7]: 0.21 Cmax
